The experiment deals with HIV-1 CXCR4-tropic in human PBMC, supernatant RT activity. Briefly: inhibitors of CXCR4-tropic HIV-1 replication in PBMCs, dose response, cell-based, human PBMC, set 2 (AID 504563).

What is called IC50 is the concentration that inhibits the measured activity by half. Regarding `Cc1c2c(=O)n(-c3nc4ccccc4s3)nc-2cc(O)n1C1CC1`, the IC50 was 0.76 µM. Consider `Cc1c2c(=O)n(-c3nc4ccccc4s3)nc-2cc(O)n1Cc1ccccc1Cl`, for which the IC50 is 7.26 µM. The value for `Cc1c2c(=O)n(-c3nc4ccccc4s3)nc-2cc(O)n1Cc1ccncc1` was 1.99 µM; that for `COc1ccc(CCn2c(O)cc3nn(-c4nc5ccccc5s4)c(=O)c-3c2C)cc1` was 12.6 µM; that for `Cc1c2c(=O)n(-c3nc4ccccc4s3)nc-2cc(O)n1Cc1cccs1` was 1.83 µM.

For the molecule `Cc1c2c(=O)n(-c3nc4ccccc4s3)nc-2cc(O)n1Cc1ccc(F)cc1`, the 50% inhibitory concentration (IC50) was 3.98 µM. The value for `COc1ccc(Cn2c(O)cc3nn(-c4nc5ccccc5s4)c(=O)c-3c2C)cc1` was 2.86 µM; that for `Cc1c2c(=O)n(-c3nc4ccccc4s3)nc-2cc(O)n1Cc1cccnc1` was 1.51 µM. For the molecule `COc1ccccc1Cn1c(O)cc2nn(-c3nc4ccccc4s3)c(=O)c-2c1C`, the half-maximal inhibitory concentration (IC50) was 5.55 µM. The value for `Cc1c2c(=O)n(-c3nc4ccccc4s3)nc-2cc(O)n1Cc1ccccc1` was 3.21 µM. The same measure for `Cc1c2c(=O)n(-c3nc4ccccc4s3)nc-2cc(O)n1CCc1cccs1`: 3.77 µM; for `Cc1c2c(=O)n(-c3nc4ccccc4s3)nc-2cc(O)n1CCC(C)C`: 5.25 µM; for `Cc1c2c(=O)n(-c3nc4ccccc4s3)nc-2cc(O)n1CCc1ccc(O)cc1`: 1.85 µM.

(Values after PubChem BioAssay AID504563 (Southern Research Specialized Biocontainment Screening …, 2011).)
